Where “and” joins values, the source holds several entries; their conditions need not be identical. Equal values may be shown once.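 48-hour exposure; five concentrations; linearly interpolated endpoints. GI50 = concentration required for 50% inhibition of growth. TGI is the concentration that stops growth completely.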
What was measured:
Assay in all cases: NCI anticancer screen, dose series, 48 h
SK-OV-3 ovarian = system: SK-OV-3 ovarian
LOX IMVI melanoma = system: LOX IMVI melanoma
OVCAR-3 ovarian = system: OVCAR-3 ovarian
MCF7 breast = system: MCF7 breast
A549 NSCLC = system: A549 NSCLC
UACC-62 melanoma = system: UACC-62 melanoma
RXF 393 renal = system: RXF 393 renal
NCI-H23 lung = system: NCI-H23 lung
HCT-15 colon = system: HCT-15 colon
EKVX NSCLC = system: EKVX NSCLC

Row | SMILES | TGI (SK-OV-3 ovarian) [µM] | TGI (LOX IMVI melanoma) [µM] | TGI (OVCAR-3 ovarian) [µM] | TGI (MCF7 breast) [µM] | TGI (A549 NSCLC) [µM] | TGI (UACC-62 melanoma) [µM] | TGI (RXF 393 renal) | TGI (NCI-H23 lung) [µM] | TGI (HCT-15 colon) [µM] | TGI (EKVX NSCLC) [µM] | GI50 (SK-OV-3 ovarian) [µM] | GI50 (LOX IMVI melanoma) [µM] | GI50 (OVCAR-3 ovarian) [µM] | GI50 (MCF7 breast) [µM] | GI50 (A549 NSCLC) [µM] | GI50 (UACC-62 melanoma) [µM] | GI50 (RXF 393 renal) [µM] | GI50 (NCI-H23 lung) [µM] | GI50 (HCT-15 colon) [µM] | GI50 (EKVX NSCLC) [µM]
1 | CCOC(=O)/C(O)=C(/C=N\C(=S)Nc1ccccc1Cl)C(=O)OCC | > 100 | > 100 | > 100 | > 100 | > 100 | > 100 | > 100 µM | > 100 | > 100 | > 100 |  |  |  |  |  |  |  |  |  | 
2 | O=C(O)C1CC2C3CCC2C1C3=O (stereo unspecified) | > 100 | > 100 | > 100 | > 100 | > 100 | > 100 | > 100 µM | > 100 | > 100 | > 100 |  |  |  |  |  |  |  |  |  | 
3 | N#CC(C#N)=CN1CCN(C(=O)c2ccco2)C1=S | 86.5 | > 100 | > 100 | 28.4 | 47.7 | 25.4 | 6.6 µM | 22.5 | > 100 | 71.5 | 33.1 | 3.34 | 11.2 | 3.45 | 13.5 | 8.81 | 2.63 | 5.78 | 5.23 | 11.9
4 | CN(C)c1ccc(-c2c(C#N)c(N)[nH]c(=S)c2C#N)cc1 | > 100 | > 100 | > 100 | > 100 | > 100 | > 100 | > 100 µM | > 100 | > 100 | > 100 |  |  |  |  |  |  |  |  |  | 
5 | COc1cc2cc(C(=O)N3CC(CCl)c4c3cc(NC(=O)C(C)(C)c3ccccc3[N+](=O)[O-])c3ccccc43)[nH]c2c(OC)c1OC (stereo unspecified) |  | 6.86 | 222 |  | > 600 |  | 5.9 µM and 19.9 µM |  |  |  | 70 |  |  | 16.1 |  | 25.4 | 6.25 | 8.67 | 13.2 | 127
6 | C/C(=N\N)C(CN(C)C)C(c1ccccc1)c1c(O)c2ccccc2oc1=O (stereo unspecified) | > 100 | > 100 | > 100 | > 100 | > 100 | > 100 | > 100 µM | > 100 | > 100 | > 100 |  |  |  |  |  |  |  |  |  | 
7 | Cc1c2ccncc2cc2c1sc1ccncc12 | 29 | 25.6 | 27.7 | 3.56 | 5.3 | 8.41 | 12.4 µM | 10.7 | 14.4 | 15.5 |  |  |  |  |  |  |  |  |  | 
8 | Cc1c2cnccc2c(C)c2c1[nH]c1ccc(O)cc12 | > 10 | 1.71 | 3.91 | 5.34 | > 10 | > 10 | 7.24 µM | 8.25 | > 10 | > 10 |  |  |  |  |  |  |  |  |  | 
9 | N#CC1(C#N)C2CCCCC23OC(=N)C1(C#N)C(c1ccco1)O3 (stereo unspecified) | > 100 | 37.5 | 33.5 | 54 | > 100 | 36.4 | 59.1 µM | 70.5 | 22.5 | 79.3 |  |  |  |  |  |  |  |  |  | 
10 | CSc1nc2ccccc2c(=O)n1/N=C1\C(=O)N(CN2CCCCC2)c2ccc(Cl)cc21 | 94.7 | 28.8 | > 100 | > 100 | > 100 | > 100 | 33.4 µM | > 100 | > 100 | > 100 |  |  |  |  |  |  |  |  |  | 
11 | CCOC(=O)C(c1c[nH]c2ccccc12)(c1c[nH]c2ccccc12)c1c[nH]c2ccccc12 | > 100 | > 100 | > 100 | 90.2 | > 100 | > 100 | 87.5 µM | > 100 | > 100 | > 100 |  |  |  |  |  |  |  |  |  | 
12 | COc1ccc(Br)c2c1CC(C(=O)O)CC2 (stereo unspecified) | > 100 | > 100 | > 100 | > 100 | > 100 | > 100 | > 100 µM | > 100 | > 100 | > 100 |  |  |  |  |  |  |  |  |  | 
13 | COC(=O)[C@H](Cc1ccccc1)NC(=O)NCCN(CCNC(=O)N[C@@H](Cc1ccccc1)C(=O)OC)C(=O)N[C@@H](Cc1ccccc1)C(=O)OC | > 60.8 | 76.3 | 39.7 | 61.8 | 54.3 | 49.8 | 31.9 µM | 36.1 | > 100 | > 61.7 |  |  |  |  |  |  |  |  |  | 
14 | CCCCc1ccc(Nc2nc(Cl)c3c(ncn3COCCOC(C)=O)n2)cc1 | 42.9 | 34 | 43.8 | 49.1 | 41 | 31.1 | 28.4 µM | 35.6 | 30.7 | 37.1 |  |  |  |  |  |  |  |  |  | 

Reference: PubChem BioAssay (NCI)
